# Assay results as given in patent US8778941B2, “TRPM8 antagonists and their use in treatments” (AMGEN Inc., priority 2011, dated 2014).
# Biological target: T1, human TRPM8 (Homo sapiens, UniProt Q7Z2W7)
# T1 construct: expressed in transfected cells; host or cells: Chinese hamster ovary (CHO) cells, T-REx tetracycline-inducible expression system (Invitrogen), co-transfected with pcDNA3.1 jellyfish aequorin
# Experiment: Luminescence readout assay for measuring intracellular calcium (aequorin), hTRPM8 antagonism
# Format: cell-based
# Conditions: CHO cell line expressing human TRPM8 and aequorin; activation by icilin, L-menthol or cold buffer (table does not say which)
# Procedure: Luminescence Readout Assay for Measuring Intracellular Calcium.
# A stable Chinese hamster ovary cell line expressing human TRPM8 was generated using tetracycline inducible T-REx™ expression system from Invitrogen, Inc. (Carlsbad, Calif.). […] Twenty four hours before the assay, cells were seeded in 96-well plates and TRPM8 expression was induced with 0.5 μg/mL tetracycline. […] Potential antagonists were added 2.5 min prior to the addition of agonist, […], 100 µM L-menthol, or 1 min prior to the addition of cold buffer (<10° C.). The luminescence was measured by a CCD camera based FLASH-luminometer built by Amgen, Inc. A cooling device attached to FLASH luminometer was used for cold activation.
# T1 sequence (Q7Z2W7 whole entry): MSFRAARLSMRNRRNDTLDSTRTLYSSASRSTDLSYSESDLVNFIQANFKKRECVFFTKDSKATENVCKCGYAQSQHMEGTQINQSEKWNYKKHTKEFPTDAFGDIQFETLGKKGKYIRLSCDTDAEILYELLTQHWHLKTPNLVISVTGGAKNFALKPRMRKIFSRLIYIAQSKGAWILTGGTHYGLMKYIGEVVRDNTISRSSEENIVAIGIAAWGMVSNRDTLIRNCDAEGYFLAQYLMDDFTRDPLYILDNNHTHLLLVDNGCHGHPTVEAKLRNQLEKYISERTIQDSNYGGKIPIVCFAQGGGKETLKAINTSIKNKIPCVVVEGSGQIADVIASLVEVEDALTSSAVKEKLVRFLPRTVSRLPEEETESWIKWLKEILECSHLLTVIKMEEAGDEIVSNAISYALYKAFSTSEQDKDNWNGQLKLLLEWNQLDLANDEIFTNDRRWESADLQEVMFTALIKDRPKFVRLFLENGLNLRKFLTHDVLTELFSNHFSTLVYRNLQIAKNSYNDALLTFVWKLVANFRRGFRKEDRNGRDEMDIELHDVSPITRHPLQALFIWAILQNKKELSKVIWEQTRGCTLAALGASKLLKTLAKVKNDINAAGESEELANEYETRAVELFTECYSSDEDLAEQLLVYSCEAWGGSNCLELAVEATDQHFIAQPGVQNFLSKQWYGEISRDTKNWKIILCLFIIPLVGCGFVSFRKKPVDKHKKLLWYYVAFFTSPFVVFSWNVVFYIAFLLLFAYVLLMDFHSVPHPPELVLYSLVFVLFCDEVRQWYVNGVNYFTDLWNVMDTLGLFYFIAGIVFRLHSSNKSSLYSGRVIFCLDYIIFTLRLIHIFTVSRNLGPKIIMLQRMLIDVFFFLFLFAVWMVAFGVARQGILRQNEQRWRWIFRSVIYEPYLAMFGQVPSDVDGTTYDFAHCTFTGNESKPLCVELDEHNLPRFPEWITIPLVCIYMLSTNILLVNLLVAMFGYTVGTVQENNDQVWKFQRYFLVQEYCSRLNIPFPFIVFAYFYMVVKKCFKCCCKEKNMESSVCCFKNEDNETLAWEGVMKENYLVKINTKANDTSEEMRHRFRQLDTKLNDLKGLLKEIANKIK
row,Compound,IC50 [nM]
1,"CCCc1cccnc1[C@@H](NC(=O)Nc1cccnc1)c1ccc(C(F)(F)F)cc1 [Example 168, (S)-1-((3-Propylpyridin-2-yl)(4-(trifluoromethyl)phenyl)-methyl)-3-(pyridin-3-yl)urea]",67
2,"CC#Cc1cccnc1[C@@H](NC(=O)N[C@@H](C)C(F)(F)F)c1ccc(C(F)(F)F)cc1 [Example 150, 1-((S)-(3-(prop-1-yn-1-yl)pyridin-2-yl)(4-(trifluoro-methyl)-phenyl)-methyl)-3-((S)-1,1,1-trifluoro-propan-2-yl)-urea]",48
3,"O=C(Nc1ccc2ncccc2c1)N[C@@H](c1ccc(C(F)(F)F)cc1)c1ncccc1C(F)(F)F [Example 58, (S)-1-(quinolin-6-yl)-3-((4-(trifluoro-methyl)-phenyl)(3-(trifluoro-methyl)-pyridin-2-yl)-methyl)urea]",562
4,"O=C(Nc1cccnc1)N[C@@H](c1ccc(OC(F)(F)F)c(F)c1)c1ncccc1F [Example 188, (S)-1-((3-fluoro-4-(trifluoro-methoxy)phenyl) (3-fluoropyridin-2-yl)methyl)-3-(pyridin-3-yl) urea]",7
5,"O=C(Nc1ccc(F)cc1)N[C@@H](c1ccc(C(F)(F)F)cc1)c1ncccc1C(F)(F)F [Example 47, (S)-1-(4-fluorophenyl)-3-((4-(trifluoro-methyl)-phenyl)(3-(trifluoro-methyl)-pyridin-2-yl)-methyl)urea]",98
6,"COC(=O)c1ccccc1NC(=O)N[C@@H](c1ccc(C(F)(F)F)cc1)c1ncccc1F [Example 118, (S)-methyl 2-(3-((3-fluoro-pyridin-2-yl)-(4-(trifluoro-methyl)-phenyl)-methyl)-ureido)-benzoate]",162
7,"O=C1CCC(OC(=O)N[C@@H](c2ccc(OC(F)(F)F)c(F)c2)c2ncccc2F)CN1 (stereo partly drawn) [Example 178, 6-Oxopiperidin-3-yl((S)-(3-fluoro-4-(trifluoromethoxy)phenyl)(3-fluoropyridin-2-yl)methyl)carbamate]",2060
8,"CC(=O)c1ccc(NC(=O)N[C@@H](c2ccc(C(F)(F)F)cc2)c2ncccc2C(F)(F)F)cc1 [Example 138, (S)-1-(4-acetylphenyl)-3-((4-(trifluoro-methyl)-phenyl)(3-(trifluoro-methyl)-pyridin-2-yl)-methyl)urea (2,2,2-trifluoro-acetate)]",3720
9,"CCOC(=O)C(NC(=O)N[C@@H](c1ccc(C(F)(F)F)cc1)c1ncccc1C(F)(F)F)C(C)C (stereo partly drawn) [Example 98, ethyl 3-methyl-2-(3-((S)-(4-(trifluoro-methyl)-phenyl)(3-(trifluoro-methyl)-pyridin-2-yl)-methyl)-ureido)-butanoate (2,2,2-trifluoro-acetate)]",2220
10,CC(C)(C)Cc1cccnc1[C@@H](NC(=O)Nc1cccnc1)c1ccc(C(F)(F)F)cc1 [Example 62],1930
11,"O=C(NC1CCOC1)N[C@@H](c1ccc(C(F)(F)F)cc1)c1ncccc1C(F)(F)F (stereo partly drawn) [Example 56, 1-(tetrahydrofuran-3-yl)-3-((S)-(4-(trifluoro-methyl)-phenyl)(3-(trifluoro-methyl)-pyridin-2-yl)-methyl)urea]",676
12,"COc1cccc2cc([C@H](NC(=O)Nc3cccnc3)c3ncccc3C(F)(F)F)cnc12 [Example 16, (S)-1-((8-methoxy-quinolin-3-yl)-(3-(trifluoro-methyl)-pyridin-2-yl)-methyl)-3-(pyridin-3-yl)-urea]",2260
13,"O=C(Nc1cccnc1)N[C@@H](c1ccc(F)cc1)c1ncccc1C(F)(F)F [Example 19, (S)-((4-fluorophenyl)-(3-(trifluoro-methyl)-pyridin-2-yl)-methyl)-3-(pyridin-3-yl)-urea]",382
14,"O=C(N[C@@H](c1ccc(OC(F)(F)F)c(F)c1)c1ncccc1F)OC1COC1 [Example 177, (S)-oxetan-3-yl ((3-fluoro-4-(trifluoromethoxy)phenyl)(3-fluoropyridin-2-yl)methyl)carbamate]",517
15,"COc1cccc(NC(=O)N[C@@H](c2ccc(C(F)(F)F)cc2)c2ncccc2C(F)(F)F)c1 [Example 52, (S)-1-(3-methoxy-phenyl)-3-((4-(trifluoro-methyl)-phenyl)(3-(trifluoro-methyl)-pyridin-2-yl)-methyl)urea (2,2,2-trifluoro-acetate)]",61

# The remaining compounds from weak to strong by IC50, led by results:
row,IC50 [nM],Compound
1,2850,"O=C(Nc1cccnc1)NC(c1ccc(C(F)(F)F)cc1)c1ccncc1Br (centres unmarked) [Example 120, 1-((3-bromopyridin-4-yl)(4-(trifluoro-methyl)-phenyl)-methyl)-3-(pyridin-3-yl)-urea (2,2,2-trifluoro-acetate)]"
2,1920,"COc1ccc(CCNC(=O)N[C@@H](c2ccc(C(F)(F)F)cc2)c2ncccc2C(F)(F)F)cc1OC [Example 95, (S)-1-(3,4-dimethoxy-phenethyl)-3-((4-(trifluoro-methyl)-phenyl)(3-(trifluoro-methyl)-pyridin-2-yl)-methyyl)urea (2,2,2-trifluoro-acetate)]"
3,1650,"COc1ncc(NC(=O)N[C@@H](c2ccc(C(F)(F)F)cc2)c2ncccc2F)cn1 [Example 160, (S)-1-((3-fluoropyridin-2-yl)(4-(trifluoro-methyl)-phenyl)-methyl)-3-(2-methoxy-pyrimidin-5-yl)urea]"
4,1610,"O=C(Nc1ccc(-c2noc(=O)[nH]2)cc1)N[C@@H](c1ccc(C(F)(F)F)cc1)c1ncccc1C(F)(F)F [Example 148, (S)-1-(4-(5-Oxo-4,5-dihydro-1,2,4-oxadiazol-3-yl)phenyl)-3-((4-(trifluoromethyl)phenyl)(3-(trifluoromethyl)pyridin-2-yl)methyl)urea]"
5,1310,"O=C(Nc1cccnc1)N[C@@H](c1ccccc1)c1ncccc1C(F)(F)F [Example 20, (S)-1-(phenyl(3-(trifluoro-methyl)-pyridin-2-yl)-methyl)-3-(pyridin-3-yl)-urea]"
6,723,"Cc1cccc([C@H](NC(=O)Nc2cccnc2)c2ncccc2C(F)(F)F)c1 [Example 7, (S)-1-((3-methylphenyl) (3-(trifluoro-methyl)-pyridin-2-yl)-methyl)-3-(pyridin-3-yl)-urea]"
7,670,"O=C(NC1CCN(C(=O)OCc2ccccc2)CC1)N[C@@H](c1ccc(C(F)(F)F)cc1)c1ncccc1C(F)(F)F [Example 75, (S)-benzyl 4-(3-((4-(trifluoro-methyl)-phenyl)(3-(trifluoro-methyl)-pyridin-2-yl)-methyl)-ureido)-piperidine-1-carboxylate (2,2,2-trifluoro-acetate)]"
8,604,"CCCCOC(=O)CNC(=O)N[C@@H](c1ccc(C(F)(F)F)cc1)c1ncccc1C(F)(F)F [Example 104, (S)-butyl 2-(3-((4-(trifluoro-methyl)-phenyl)(3-(trifluoro-methyl)-pyridin-2-yl)-methyl)-ureido)acetate (2,2,2-trifluoro-acetate)]"
9,583,"O=C(NCc1ccc(Cl)c(Cl)c1)N[C@@H](c1ccc(C(F)(F)F)cc1)c1ncccc1C(F)(F)F [Example 184, (S)-1-(3,4-dichlorobenzyl)-3-((4-(trifluoro-methyl)phenyl) (3-(trifluoro-methyl)pyridin-2-yl)methyl)urea (2,2,2-trifluoro-acetate)]"
10,541,"O=C(NCc1ccc(F)cc1)N[C@@H](c1ccc(C(F)(F)F)cc1)c1ncccc1C(F)(F)F [Example 144, (S)-1-(4-fluorobenzyl)-3-((4-(trifluoro-methyl)-phenyl)(3-(trifluoro-methyl)-pyridin-2-yl)-methyl)urea (2,2,2-trifluoro-acetate)]"
11,494,"Cc1cc(C)cc(NC(=O)N[C@@H](c2ccc(C(F)(F)F)cc2)c2ncccc2C(F)(F)F)c1 [Example 106, (S)-1-(3,5-dimethylphenyl)-3-((4-(trifluoro-methyl)-phenyl)(3-(trifluoro-methyl)-pyridin-2-yl)-methyl)urea (2,2,2-trifluoro-acetate)]"
12,259,"O=C(Nc1cccnc1)N[C@@H](c1cnc2ccccc2c1)c1ncccc1C(F)(F)F [Example 6, (S)-1-(pyridin-3-yl)-3-(quinolin-3-yl(3-(trifluoro-methyl)-pyridin-2-yl)-methyl)urea]"
13,216,"O=C(Nc1cccnc1)NC(c1ccc(C(F)(F)F)nc1)c1ncccc1C(F)(F)F (centres unmarked) [Example 25, 1-(pyridin-3-yl)-3-((3-(trifluoro-methyl)-pyridin-2-yl)-(6-(trifluoro-methyl)-pyridin-3-yl)-methyl)urea (2,2,2-trifluoro-acetate)]"
14,175,"O=C(Nc1cccnc1)N[C@@H](c1cccc(C(F)(F)F)c1)c1ncccc1C(F)(F)F [Example 9, (S)-1-((3-(trifluoro-methyl)-phenyl)(3-(trifluoro-methyl)-pyridin-2-yl)-methyl)-3-(pyridin-3-yl)-urea]"
15,81,"O=C(Nc1ccccc1)N[C@@H](c1ccc(C(F)(F)F)cc1)c1ncccc1C(F)(F)F [Example 31, (S)-1-phenyl-3-((4-(trifluoro-methyl)-phenyl)(3-(trifluoro-methyl)-pyridin-2-yl)-methyl)urea]"
16,67,"O=C(Nc1cccnc1)N[C@@H](c1ccc(C(F)(F)F)cc1)c1ncccc1Br [Example 28, (S)-1-((3-bromopyridin-2-yl)(4-(trifluoro-methyl)-phenyl)-methyl)-3-(pyridin-3-yl)-urea]"
17,41,"CCc1ccc([C@H](NC(=O)Nc2cccnc2)c2ncccc2C(F)(F)F)cc1 [Example 27, (S)-1-((4-ethylphenyl)-(3-(trifluoro-methyl)-pyridin-2-yl)-methyl)-3-(pyridin-3-yl)-urea]"
